Consider 23 compounds from patent publication US8283361B2 (AstraZeneca AB, priority 2008, dated 2012).

Structures can show the parent of a compound that is named as a salt.

S. aureus GyrB ATPase, sequence (P0A0K8 whole entry): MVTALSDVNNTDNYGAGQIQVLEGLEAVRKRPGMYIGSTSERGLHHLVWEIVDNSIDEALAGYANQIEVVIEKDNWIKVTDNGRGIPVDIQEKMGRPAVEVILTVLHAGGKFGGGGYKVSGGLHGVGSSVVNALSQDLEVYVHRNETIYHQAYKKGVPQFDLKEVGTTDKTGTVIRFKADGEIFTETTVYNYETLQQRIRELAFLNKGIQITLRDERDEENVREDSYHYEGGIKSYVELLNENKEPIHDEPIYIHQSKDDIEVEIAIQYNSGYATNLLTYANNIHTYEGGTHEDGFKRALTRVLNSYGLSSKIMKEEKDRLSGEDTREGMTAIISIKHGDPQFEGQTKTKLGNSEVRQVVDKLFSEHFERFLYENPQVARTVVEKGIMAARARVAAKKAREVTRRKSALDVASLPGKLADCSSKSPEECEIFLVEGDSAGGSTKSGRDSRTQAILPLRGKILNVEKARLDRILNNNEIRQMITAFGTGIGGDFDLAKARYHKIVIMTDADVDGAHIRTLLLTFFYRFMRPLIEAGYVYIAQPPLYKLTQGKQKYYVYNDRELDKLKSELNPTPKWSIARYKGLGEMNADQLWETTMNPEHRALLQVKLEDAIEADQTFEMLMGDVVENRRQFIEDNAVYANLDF
S. aureus GyrB ATPase, sequence (P0AES4 whole entry, further chain): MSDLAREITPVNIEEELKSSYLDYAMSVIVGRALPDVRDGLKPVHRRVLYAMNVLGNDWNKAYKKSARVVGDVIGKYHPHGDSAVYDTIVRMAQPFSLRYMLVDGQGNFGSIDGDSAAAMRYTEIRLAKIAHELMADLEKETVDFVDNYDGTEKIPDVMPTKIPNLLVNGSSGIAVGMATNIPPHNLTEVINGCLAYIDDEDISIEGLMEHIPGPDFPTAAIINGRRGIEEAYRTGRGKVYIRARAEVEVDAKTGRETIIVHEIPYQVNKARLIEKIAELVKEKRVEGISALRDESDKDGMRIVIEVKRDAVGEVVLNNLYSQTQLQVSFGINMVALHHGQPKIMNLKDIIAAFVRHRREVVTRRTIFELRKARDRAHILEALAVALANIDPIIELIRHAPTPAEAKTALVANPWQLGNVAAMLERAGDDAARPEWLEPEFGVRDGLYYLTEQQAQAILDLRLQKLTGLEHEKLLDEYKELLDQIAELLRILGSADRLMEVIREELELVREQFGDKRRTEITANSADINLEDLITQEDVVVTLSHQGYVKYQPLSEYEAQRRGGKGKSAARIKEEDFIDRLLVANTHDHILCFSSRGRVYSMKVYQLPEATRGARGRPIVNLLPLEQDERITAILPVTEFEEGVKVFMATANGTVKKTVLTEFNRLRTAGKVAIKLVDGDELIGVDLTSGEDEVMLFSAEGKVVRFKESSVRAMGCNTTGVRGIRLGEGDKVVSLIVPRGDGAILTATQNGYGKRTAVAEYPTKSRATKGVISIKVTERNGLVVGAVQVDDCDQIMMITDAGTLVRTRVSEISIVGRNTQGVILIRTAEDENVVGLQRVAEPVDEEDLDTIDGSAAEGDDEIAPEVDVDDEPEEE

For the assay, the target named is S. aureus GyrB ATPase (Staphylococcus aureus, UniProt P0A0K8). As to the kind of experiment: biochemical. Particulars: compound at 1 μM; one value per test if tested more than once; read-out: % Inhibition of S. aureus GyrB ATPase. The essentials:
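IC50 values derive from 10-point titrations of compound (in DMSO). Phosphate formed from 250 μM ATP was quantified by acidic molybdate/malachite green after quenching.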
What is called inhibition is the change of the read-out against control, counted positive when it falls. As for `CCNC(=O)Nc1cc(-c2nc(C(F)(F)F)cs2)c(-c2ccc3c(c2)c(=O)c(C(=O)O)cn3[C@H]2CCCNC2)cn1` [Example 245, (S)-6-(6-(3-ethylureido)-4-(4-(trifluoromethyl)thiazol-2-yl)pyridin-3-yl)-4-oxo-1-(piperidin-3-yl)-1,4-dihydroquinoline-3-carboxylic acid], the inhibition at 1 µM stood at 105%.

Consider `CCNC(=O)Nc1cc(-c2nc(C(F)(F)F)cs2)c(-c2ccc3c(c2)c(=O)c(C(=O)O)cn3[C@@H]2CCN(C)C2)cn1` [Example 246, (R)-6-(6-(3-ethylureido)-4-(4-(trifluoromethyl)thiazol-2-yl)pyridin-3-yl)-1-(1-methylpyrrolidin-3-yl)-4-oxo-1,4-dihydroquinoline-3-carboxylic acid], for which the inhibition at 1 µM was determined as 104%.

In the case of `CCNC(=O)Nc1cc(-c2nc(C(F)(F)F)cs2)c(-c2ccc3c(c2)c(=O)c(C(=O)O)cn3C[C@@H]2CCCN(C)C2)cn1` [Example 247, (R)-6-(6-(3-ethylureido)-4-(4-(trifluoromethyl)thiazol-2-yl)pyridin-3-yl)-1-((1-methylpiperidin-3-yl)methyl)-4-oxo-1,4-dihydroquinoline-3-carboxylic acid], the inhibition at 1 µM was 115%.

`CCNC(=O)Nc1cc(-c2nc(C(F)(F)F)cs2)c(-c2ccc3c(c2)c(=O)c(C(=O)O)cn3[C@H]2CCCN(C)C2)cn1` [Example 248, (S)-6-(6-(3-ethylureido)-4-(4-(trifluoromethyl)thiazol-2-yl)pyridin-3-yl)-1-(1-methylpiperidin-3-yl)-4-oxo-1,4-dihydroquinoline-3-carboxylic acid]: the inhibition at 1 µM came out at 103%.

Consider `CCNC(=O)Nc1cc(-c2nc(C(F)(F)F)cs2)c(-c2ccc3c(c2)c(=O)c(C(=O)O)cn3C[C@H]2CCN(CC)C2)cn1` [Example 249, (S)-1-((1-ethylpyrrolidin-3-yl)methyl)-6-(6-(3-ethylureido)-4-(4-(trifluoromethyl)thiazol-2-yl)pyridin-3-yl)-4-oxo-1,4-dihydroquinoline-3-carboxylic acid], for which the inhibition at 1 µM was determined as 113%.

For `CCNC(=O)Nc1cc(-c2nc(C(F)(F)F)cs2)c(-c2ccc3c(c2)c(=O)c(C(=O)O)cn3[C@@H]2CCN(CC)C2)cn1` [Example 250, (R)-1-(1-ethylpyrrolidin-3-yl)-6-(6-(3-ethylureido)-4-(4-(trifluoromethyl)thiazol-2-yl)pyridin-3-yl)-4-oxo-1,4-dihydroquinoline-3-carboxylic acid], the inhibition at 1 µM is 112%.

With `CCNC(=O)Nc1cc(-c2nc(C(F)(F)F)cs2)c(-c2ccc3c(c2)c(=O)c(C(=O)O)cn3C[C@@H]2CCCN(CC)C2)cn1` [Example 251, (R)-1-((1-ethylpiperidin-3-yl)methyl)-6-(6-(3-ethylureido)-4-(4-(trifluoromethyl)thiazol-2-yl)pyridin-3-yl)-4-oxo-1,4-dihydroquinoline-3-carboxylic acid], the inhibition at 1 µM came to 113%.

On to `CCNC(=O)Nc1cc(-c2nc(C(F)(F)F)cs2)c(-c2ccc3c(c2)c(=O)c(C(=O)O)cn3[C@@H]2CCCN(CC)C2)cn1` [Example 252, (R)-1-(1-ethylpiperidin-3-yl)-6-(6-(3-ethylureido)-4-(4-(trifluoromethyl)thiazol-2-yl)pyridin-3-yl)-4-oxo-1,4-dihydroquinoline-3-carboxylic acid], for which the inhibition at 1 µM is 105%.

Turning to `CCNC(=O)Nc1cc(-c2nc(C(F)(F)F)cs2)c(-c2ccc3c(c2)c(=O)c(C(=O)O)cn3CC(C)N(C)C)cn1` (centres unmarked) [Example 277, 1-(2-(dimethylamino)propyl)-6-(6-(3-ethylureido)-4-(4-(trifluoromethyl)thiazol-2-yl)pyridin-3-yl)-4-oxo-1,4-dihydroquinoline-3-carboxylic acid], the inhibition at 1 µM was determined as 103%.

As for `CCNC(=O)Nc1cc(-c2nc(C(F)(F)F)cs2)c(-c2ccc3c(c2)c(=O)c(C(=O)O)cn3[C@@H]2CCCC[C@H]2O)cn1` [Example 278, 6-(6-(3-ethylureido)-4-(4-(trifluoromethyl)thiazol-2-yl)pyridin-3-yl)-1-((1R,2R)-2-hydroxycyclohexyl)-4-oxo-1,4-dihydroquinoline-3-carboxylic acid], the inhibition at 1 µM was 101%.

As to `CCNC(=O)Nc1cc(-c2nc(C(F)(F)F)cs2)c(-c2ccc3c(c2)c(=O)c(C(=O)O)cn3[C@H]2CCCC[C@@H]2O)cn1` [Example 279, 6-(6-(3-ethylureido)-4-(4-(trifluoromethyl)thiazol-2-yl)pyridin-3-yl)-1-((1S,2S)-2-hydroxycyclohexyl)-4-oxo-1,4-dihydroquinoline-3-carboxylic acid], the inhibition at 1 µM is 103%.

Turning to `CCNC(=O)Nc1cc(-c2nc(C(F)(F)F)cs2)c(-c2ccc3c(c2)c(=O)c(C(=O)O)cn3[C@H]2CCCN(CCS(C)(=O)=O)C2)cn1` [Example 280, (S)-ethyl 6-(6-(3-ethylureido)-4-(4-(trifluoromethyl)thiazol-2-yl)pyridin-3-yl)-1-(1-(2-(methylsulfonyl)ethyl)piperidin-3-yl)-4-oxo-1,4-dihydroquinoline-3-carboxylic acid], the inhibition at 1 µM turned out to be 103%.

`CCNC(=O)Nc1cc(-c2nc(C(F)(F)F)cs2)c(-c2ccc3c(c2)c(=O)c(C(=O)O)cn3[C@@H]2CCCN(CCS(C)(=O)=O)C2)cn1` [Example 281, (R)-ethyl 6-(6-(3-ethylureido)-4-(4-(trifluoromethyl)thiazol-2-yl)pyridin-3-yl)-1-(1-(2-(methylsulfonyl)ethyl)piperidin-3-yl)-4-oxo-1,4-dihydroquinoline-3-carboxylic acid]: the inhibition at 1 µM came out at 106%.

Turning to `CCNC(=O)Nc1cc(-c2nc(C(F)(F)F)cs2)c(-c2ccc3c(c2)c(=O)c(C(=O)O)cn3[C@@H]2CCCN(Cc3cccn3C)C2)cn1` [Example 282, (R)-ethyl 6-(6-(3-ethylureido)-4-(4-(trifluoromethyl)thiazol-2-yl)pyridin-3-yl)-1-(1-((1-methyl-1H-pyrrol-2-yl)methyl)piperidin-3-yl)-4-oxo-1,4-dihydroquinoline-3-carboxylic acid], the inhibition at 1 µM was 105%.

For the compound `CCNC(=O)Nc1cc(-c2nc(C(F)(F)F)cs2)c(-c2ccc3c(c2)c(=O)c(C(=O)O)cn3[C@H]2CCCN(Cc3cccn3C)C2)cn1` [Example 283, (S)-ethyl 6-(6-(3-ethylureido)-4-(4-(trifluoromethyl)thiazol-2-yl)pyridin-3-yl)-1-(1-((1-methyl-1H-pyrrol-2-yl)methyl)piperidin-3-yl)-4-oxo-1,4-dihydroquinoline-3-carboxylic acid], the inhibition at 1 µM came out at 102%.

For `CCNC(=O)Nc1cc(-c2nc(C(F)(F)F)cs2)c(-c2ccc3c(c2)c(=O)c(C(=O)O)cn3[C@H]2CCCN(CCN3CCOCC3)C2)cn1` [Example 284, (S)-ethyl 6-(6-(3-ethylureido)-4-(4-(trifluoromethyl)thiazol-2-yl)pyridin-3-yl)-1-(1-(2-morpholinoethyl)piperidin-3-yl)-4-oxo-1,4-dihydroquinoline-3-carboxylic acid], the inhibition at 1 µM was found to be 107%.

As for `CCNC(=O)Nc1cc(-c2nc(C(F)(F)F)cs2)c(-c2ccc3c(c2)c(=O)c(C(=O)O)cn3[C@@H]2CCCN(CCN3CCOCC3)C2)cn1` [Example 285, (R)-ethyl 6-(6-(3-ethylureido)-4-(4-(trifluoromethyl)thiazol-2-yl)pyridin-3-yl)-1-(1-(2-morpholinoethyl)piperidin-3-yl)-4-oxo-1,4-dihydroquinoline-3-carboxylic acid], the inhibition at 1 µM is 105%.

On to `CCNC(=O)Nc1cc(-c2nc(C(F)(F)F)cs2)c(-c2ccc3c(c2)c(=O)c(C(=O)O)cn3[C@@H]2CCCN(CC(C)(C)C)C2)cn1` [Example 286], for which the inhibition at 1 µM was found to be 102%.

Regarding `CCNC(=O)Nc1cc(-c2nc(C(F)(F)F)cs2)c(-c2ccc3c(c2)c(=O)c(C(=O)O)cn3[C@H]2CCCN(CCN(CC)CC)C2)cn1` [Example 287, (S)-ethyl 1-(1-(2-(diethylamino)ethyl)piperidin-3-yl)-6-(6-(3-ethylureido)-4-(4-(trifluoromethyl)thiazol-2-yl)pyridin-3-yl)-4-oxo-1,4-dihydroquinoline-3-carboxylic acid trifluoroacetate], the inhibition at 1 µM was 100%.

Take `CCNC(=O)Nc1cc(-c2nc(C(F)(F)F)cs2)c(-c2ccc3c(c2)c(=O)c(C(=O)O)cn3[C@@H]2CCCN(CCN(CC)CC)C2)cn1` [Example 288, (S)-ethyl 1-(1-(2-(diethylamino)ethyl)piperidin-3-yl)-6-(6-(3-ethylureido)-4-(4-(trifluoromethyl)thiazol-2-yl)pyridin-3-yl)-4-oxo-1,4-dihydroquinoline-3-carboxylic acid trifluoroacetate]: the inhibition at 1 µM was found to be 99%.

Regarding `CCNC(=O)Nc1cc(-c2nc(C(F)(F)F)cs2)c(-c2ccc3c(c2)c(=O)c(C(=O)O)cn3[C@H]2CCCN(CC(C)(C)CN3CCOCC3)C2)cn1` [Example 289, (S)-1-(1-(2,2-dimethyl-3-morpholinopropyl)piperidin-3-yl)-6-(6-(3-ethylureido)-4-(4-(trifluoromethyl)thiazol-2-yl)pyridin-3-yl)-4-oxo-1,4-dihydroquinoline-3-carboxylic acid], the inhibition at 1 µM was 103%.

On to `CCNC(=O)Nc1cc(-c2nc(C(F)(F)F)cs2)c(-c2ccc3c(c2)c(=O)c(C(=O)O)cn3[C@@H]2CCCN(CC(C)(C)CN3CCOCC3)C2)cn1` [Example 290, (R)-1-(1-(2,2-dimethyl-3-morpholinopropyl)piperidin-3-yl)-6-(6-(3-ethylureido)-4-(4-(trifluoromethyl)thiazol-2-yl)pyridin-3-yl)-4-oxo-1,4-dihydroquinoline-3-carboxylic acid], for which the inhibition at 1 µM came to 100%.

In the case of `CCNC(=O)Nc1cc(-c2nc(C(F)(F)F)cs2)c(-c2ccc3c(c2)c(=O)c(C(=O)O)cn3[C@H]2CCCN(CCO)C2)cn1` [Example 291, (S)-6-(6-(3-ethylureido)-4-(4-(trifluoromethyl)thiazol-2-yl)pyridin-3-yl)-1-(1-(2-hydroxyethyl)piperidin-3-yl)-4-oxo-1,4-dihydroquinoline-3-carboxylic acid], the inhibition at 1 µM is 107%.
